Experimental data: US11807606B2, “Sulfonamide derivatives for protein degradation” (DANA-FARBER CANCER INSTITUTE, INC., priority 2018, dated 2023)

molecular target: DCAF15 and RRM2 domain in RBM39 (Homo sapiens (Human), UniProt Q14498+Q66K64); assay: TR-FRET biochemical assay, DCAF15 activity (recruitment of RBM39 RRM2 domain to DCAF15); assay type: binding; conditions: TR-FRET 520/490 nm ratio; biotinylated DCAF15 200 nM, Bodipy-FL RBM39 RRM2 200 nM, Tb-streptavidin 2 nM
Method: Increasing concentrations of compounds were added to pre-mixed biotinylated DCAF15 at 200 nM, Bodipy-FL-labelled RRM2 domain in RBM39 at 200 nM, and terbium (Tb)-coupled streptavidin at 2 nM (Invitrogen) in 384-well microplates in a buffer containing 50 mM Tris pH 7.5, 100 mM NaCl, 0.1% pluronic acid and 2% DMSO. Before TR-FRET measurements were conducted, the reactions were incubated for 15 min at room temperature. After excitation of terbium (Tb) fluorescence at 337 nm, emission at 490 nm (Tb) and 520 nm (Bodipy-FL) were recorded with a 70 μs delay to reduce background fluorescence and the reaction was followed over 1 h by recording 60 technical replicates of each data point using a PHERAstar FS microplate reader (BMG Labtech). The TR-FRET signal of each data point was extracted by calculating the 520/490 nm ratio. Data were analyzed with GraphPad Prism 7.

Chain of DCAF15 and RRM2 domain in RBM39 (Q66K64 whole entry, the tested form may be a part): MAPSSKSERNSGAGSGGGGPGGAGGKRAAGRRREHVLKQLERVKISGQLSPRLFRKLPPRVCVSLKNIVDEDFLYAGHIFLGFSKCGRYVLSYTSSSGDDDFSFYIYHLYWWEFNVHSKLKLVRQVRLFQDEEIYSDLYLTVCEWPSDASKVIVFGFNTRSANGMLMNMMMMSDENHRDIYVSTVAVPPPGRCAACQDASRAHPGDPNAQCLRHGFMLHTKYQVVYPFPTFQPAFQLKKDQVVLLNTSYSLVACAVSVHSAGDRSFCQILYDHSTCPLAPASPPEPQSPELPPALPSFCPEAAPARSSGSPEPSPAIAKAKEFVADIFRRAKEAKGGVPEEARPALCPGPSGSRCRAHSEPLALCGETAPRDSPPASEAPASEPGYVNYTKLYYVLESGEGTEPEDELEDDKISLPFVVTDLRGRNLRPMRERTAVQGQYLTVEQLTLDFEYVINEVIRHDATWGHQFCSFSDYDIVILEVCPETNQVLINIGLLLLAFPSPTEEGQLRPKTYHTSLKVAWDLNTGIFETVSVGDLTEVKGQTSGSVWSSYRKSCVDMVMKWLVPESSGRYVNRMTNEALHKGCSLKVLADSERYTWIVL
Chain of DCAF15 and RRM2 domain in RBM39 (Q14498 250-328): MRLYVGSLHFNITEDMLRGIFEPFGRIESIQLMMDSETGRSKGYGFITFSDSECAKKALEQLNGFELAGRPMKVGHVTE
Chain of DCAF15 and RRM2 domain in RBM39 (Q16531 whole entry partner, the tested form may be a part): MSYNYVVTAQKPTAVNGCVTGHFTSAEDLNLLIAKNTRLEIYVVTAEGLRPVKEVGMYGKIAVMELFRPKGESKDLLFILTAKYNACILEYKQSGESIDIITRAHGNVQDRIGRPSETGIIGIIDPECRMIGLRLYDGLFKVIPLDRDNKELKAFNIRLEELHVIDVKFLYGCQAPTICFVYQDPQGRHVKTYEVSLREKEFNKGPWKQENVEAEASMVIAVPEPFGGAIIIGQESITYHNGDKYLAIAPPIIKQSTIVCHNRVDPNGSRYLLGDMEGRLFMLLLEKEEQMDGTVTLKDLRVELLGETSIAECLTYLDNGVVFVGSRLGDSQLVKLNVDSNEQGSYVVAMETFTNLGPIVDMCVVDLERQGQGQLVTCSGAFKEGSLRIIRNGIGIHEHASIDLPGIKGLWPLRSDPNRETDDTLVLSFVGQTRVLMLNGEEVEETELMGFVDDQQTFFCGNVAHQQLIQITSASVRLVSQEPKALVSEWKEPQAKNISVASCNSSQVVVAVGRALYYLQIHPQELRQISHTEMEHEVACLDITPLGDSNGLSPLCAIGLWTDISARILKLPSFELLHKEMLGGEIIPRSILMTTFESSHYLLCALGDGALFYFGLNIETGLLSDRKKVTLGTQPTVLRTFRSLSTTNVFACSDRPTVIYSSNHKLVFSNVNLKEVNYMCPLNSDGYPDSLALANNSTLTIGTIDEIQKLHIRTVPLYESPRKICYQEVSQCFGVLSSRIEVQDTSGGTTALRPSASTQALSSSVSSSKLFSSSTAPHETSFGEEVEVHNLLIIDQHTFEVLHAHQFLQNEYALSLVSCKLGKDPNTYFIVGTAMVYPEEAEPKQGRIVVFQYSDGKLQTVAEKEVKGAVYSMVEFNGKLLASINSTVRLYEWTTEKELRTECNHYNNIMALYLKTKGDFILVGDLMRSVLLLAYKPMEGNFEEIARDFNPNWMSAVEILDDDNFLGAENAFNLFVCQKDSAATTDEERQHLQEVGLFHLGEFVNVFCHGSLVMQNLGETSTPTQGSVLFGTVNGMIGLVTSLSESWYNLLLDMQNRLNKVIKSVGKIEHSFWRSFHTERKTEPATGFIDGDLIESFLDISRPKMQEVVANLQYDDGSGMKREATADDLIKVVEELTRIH

Cc1ccccc1S(=O)(=O)Nc1ccc(C)c2c(C#N)c[nH]c12 and Cc1ccc(NS(=O)(=O)c2ccccc2Br)c2[nH]cc(C#N)c12 cannot be ordered by EC50: > 10 µM for the first, > 10 µM for the second.

N#Cc1cccc(S(=O)(=O)Nc2cc(-c3ccccc3)cc3cc[nH]c23)c1 and N#Cc1cccc(S(=O)(=O)Nc2ccc(-c3ccccc3)c3cc[nH]c23)c1 cannot be ordered by EC50: > 10 µM for the first, > 10 µM for the second.

N#Cc1cccc(S(=O)(=O)Nc2ncnc3[nH]ccc23)c1 and N#Cc1cccc(S(=O)(=O)Nc2ncnc3[nH]cc(Cl)c23)c1 cannot be ordered by EC50: > 10 µM for the first, > 10 µM for the second.

N#Cc1cccc(S(=O)(=O)Nc2cc(F)cc3c2NC(=O)C3)c1 and N#Cc1cccc(S(=O)(=O)Nc2cccc3c2CNC3=O)c1 cannot be ordered by EC50: > 10 µM for the first, > 10 µM for the second.

N#Cc1cccc(S(=O)(=O)Nc2ccc(-c3ccccc3)c3c(C#N)c[nH]c23)c1 and N#Cc1cccc(S(=O)(=O)Nc2cc(-c3ccccc3)cc3c(C#N)c[nH]c23)c1 cannot be ordered by EC50: > 10 µM for the first, > 10 µM for the second.

N#Cc1cccc(S(=O)(=O)Nc2cccc3c(Cl)n[nH]c23)c1 and N#Cc1cccc(S(=O)(=O)Nc2cccc3c(C#N)c[nH]c23)c1 cannot be ordered by EC50: > 10 µM for the first, > 10 µM for the second.

Cc1ccc(NS(=O)(=O)c2ccccc2C(F)(F)F)c2[nH]cc(C#N)c12 and Cc1ccc(NS(=O)(=O)c2ccccc2OC(F)(F)F)c2[nH]cc(C#N)c12 cannot be ordered by EC50: > 10 µM for the first, > 10 µM for the second.

N#Cc1cccc(S(=O)(=O)Nc2cc(Cl)cc3c(Br)c[nH]c23)c1 and N#Cc1cccc(S(=O)(=O)Nc2cc(Cl)cc3cc[nH]c23)c1 cannot be ordered by EC50: > 10 µM for the first, > 10 µM for the second.

CNC(=O)c1cccc(S(=O)(=O)Nc2ccc(C)c3c(C#N)c[nH]c23)c1 and COC(=O)c1cccc(S(=O)(=O)Nc2ccc(C)c3c(C#N)c[nH]c23)c1 fall in the same range of EC50: 1 to 10 µM for the first, 1 to 10 µM for the second.

N#Cc1cccc(S(=O)(=O)Nc2cccn3ncnc23)c1 and N#Cc1cccc(S(=O)(=O)Nc2cccc(C(N)=O)c2N)c1 cannot be ordered by EC50: > 10 µM for the first, > 10 µM for the second.

COC(=O)c1ccc(S(=O)(=O)Nc2ccc(C)c3c(C#N)c[nH]c23)cc1 and Cc1ccc(NS(=O)(=O)c2ccc([N+](=O)[O-])cc2)c2[nH]cc(C#N)c12 fall in the same range of EC50: 1 to 10 µM for the first, 1 to 10 µM for the second.

Compared with Cc1ccc(NS(=O)(=O)c2ccc(F)cc2F)c2[nH]cc(C#N)c12, Cc1ccc(NS(=O)(=O)c2ccccc2[N+](=O)[O-])c2[nH]cc(C#N)c12 is higher in EC50: 1 to 10 µM for the first, > 10 µM for the second.

Cc1ccc(NS(=O)(=O)c2cccc([N+](=O)[O-])c2)c2[nH]cc(C#N)c12 and Cc1cccc(S(=O)(=O)Nc2ccc(C)c3c(C#N)c[nH]c23)c1 fall in the same range of EC50: 1 to 10 µM for the first, 1 to 10 µM for the second.

Cc1ccc(NS(=O)(=O)c2cccc(C(F)(F)F)c2)c2[nH]cc(C#N)c12 and Cc1ccc(NS(=O)(=O)c2cccc(N)c2)c2[nH]cc(C#N)c12 fall in the same range of EC50: 1 to 10 µM for the first, 1 to 10 µM for the second.

Cc1ccc(NS(=O)(=O)c2cccc(C#N)c2)c2[nH]cc(C=O)c12 and Cc1ccc(NS(=O)(=O)c2cccc(C#N)c2)c2[nH]cc(Cl)c12 fall in the same range of EC50: 1 to 10 µM for the first, 1 to 10 µM for the second.

CC(=O)Nc1ccc(C)c2c(C#N)c[nH]c12 and Cc1ccc(NS(C)(=O)=O)c2[nH]cc(C#N)c12 cannot be ordered by EC50: > 10 µM for the first, > 10 µM for the second.

CCOC(=O)c1cc2c(C)ccc(NS(=O)(=O)c3cccc(C#N)c3)c2[nH]1 and CCOC(=O)c1cc2cc(NS(=O)(=O)c3cccc(C#N)c3)ccc2[nH]1 cannot be ordered by EC50: > 10 µM for the first, > 10 µM for the second.

First: CNC(=O)c1c[nH]c2c(NS(=O)(=O)c3cccc(C#N)c3)ccc(C)c12
Second: Cc1ccc(NS(=O)(=O)c2cccc(C#N)c2)c2[nH]cc(Br)c12
The EC50 of the first is higher: > 10 µM for the first, 1 to 10 µM for the second. The second is the more potent here.

Compared with O=S(=O)(Nc1ncnc2[nH]ccc12)c1ccccc1, Cc1ccc(NS(=O)(=O)c2ccccc2)c2[nH]cc(C#N)c12 is lower in EC50: > 10 µM for the first, 1 to 10 µM for the second. The second is the more potent here.

COCCNc1ccc(S(=O)(=O)Nc2ccc(C)c3c(C#N)c[nH]c23)cc1C#N and Cc1ccc(NS(=O)(=O)c2ccc(C#N)cc2)c2[nH]cc(C#N)c12 fall in the same range of EC50: 1 to 10 µM for the first, 1 to 10 µM for the second.

Cc1ccc(NC(=O)c2cccc(C#N)c2)c2[nH]cc(C#N)c12 and N#Cc1cccc(S(=O)(=O)Nc2ccc3[nH]cc(C#N)c3c2)c1 cannot be ordered by EC50: > 10 µM for the first, > 10 µM for the second.

N#Cc1cccc(S(=O)(=O)Nc2ccc3c(C#N)c[nH]c3c2)c1 and Cc1ccc(NS(=O)(=O)c2cccc(C#N)c2)c2[nH]ccc12 cannot be ordered by EC50: > 10 µM for the first, > 10 µM for the second.
